Measurements: patent publication US8790902B2, “Microorganisms having enhanced tolerance to inhibitors and stress” (UT-Batelle, LLC, priority 2009, dated 2014)
“Also recorded” adds a separate entry of the source.

Key:
[1] = test system: Zymomonas mobilis ZM4 wild-type; assay: Bioscreen growth of Z. mobilis ZM4 wild-type in RM with inhibitors; type: cell-based
Experimental: (§1) FIGS. 3A-3C. […] Z. mobilis strains were grown in RM (pH5.0) overnight, 20-μL culture were then transferred into 250-μL, RM media in the Bioscreen plate. […] Strains included in this study are: ZM4: Zymomonas mobilis ZM4 wild-type; AcR: ZM4 acetate tolerant mutant (Joachimstahl 1998); ZM4 (p42-0347): ZM4 containing a gateway plasmid p42-0347 over-expressing ZM4 gene ZMO0347; AcRIM0347: AcR insertional mutant of ZMO0347; AcRIM0347 (p42-0347): AcRIM0347 containing gateway plasmid p42-0347 over-expressing ZM4 gene ZMO0347. […] Triplicates were used for each condition.
(§2) FIGS. 4A-4E. […] Z. mobilis strains were grown in RM (pH5.0) overnight, 5-μL culture were then transferred into 250-μL RM media in the Bioscreen plate. […] Strains included in this study are: ZM4: Zymomonas mobilis ZM4 wild-type; AcR: ZM4 acetate tolerant mutant; ZM4 (p42-0347): ZM4 containing a gateway plasmid p42-0347 to express ZM4 gene ZMO0347; AcRIM0347: AcR insertional mutant of ZMO0347; AcRIM0347 (p42-0347): AcRIM0347 containing gateway plasmid p42-0347. […] Duplicate biological replicates were used for each condition.
(§3) FIGS. 5A-5E. […] Z. mobilis strains were grown in RM (pH 5.0) overnight, 5-μL culture were then transferred into 250-μL RM media in the Bioscreen plate. […] Strains included in this study are: ZM4: Zymomonas mobilis ZM4 wild-type; AcR: ZM4 acetate tolerant mutant; AcRIM0347: AcR insertional mutant of ZMO0347; AcRIM0347 (p42-0347): AcRIM0347 containing gateway plasmid p42-0347 over-expressing ZM4 gene ZMO0347.
(§4) American Type Culture Collection (ATCC31821) and the Z. mobilis acetate tolerant strain AcR has been described previously (Joachimsthal et al. 2000). ZM4 and AcR were cultured in RM medium at 30° C. S. cerevisiae wild-type, deletion mutant and GST-fusion ORF over-expression strains were obtained through Open Biosystems (Huntsville, Ala.). S. cerevisiae strains were cultured in rich YPD media. CM media with 2% glucose was used for S. cerevisiae wild-type and S. cerevisiae deletion mutants, CM media with 2% glucose minus uracil was used for S. cerevisiae GST-over expressing strains, 2% galactose was used to induce the GST-fusion strains. Plasmid-containing strains were routinely grown with antibiotics at the following concentrations (μg/mL): kanamycin of 50 for E. coli and 200 for ZM4; tetracycline, 10 for E. coli and 20 for ZM4; and gentamicin, 10 for E. coli. G418 of 200 for S. cerevisiae YKO deletion mutants. Growth was monitored turbidometrically by measuring optical density at 600nm periodically with the Bioscreen C automated microbiology growth curve analysis system (Growth Curve USA, Piscataway, N.J.).

[2] = test system: AcR: ZM4 acetate tolerant mutant; type: cell-based, Zymomonas mobilis; conditions: AcR; RM pH 5.0 supplemented with 195 mM of the chemical, anaerobic
Experimental: as §1, §2, §3, §4

AcRIM0347 (p42-0347) = type: cell-based, Zymomonas mobilis; conditions: AcRIM0347 (p42-0347); RM pH 5.0 supplemented with 195 mM of the chemical, anaerobic
Experimental: as §1, §2, §3, §4

[3] = test system: AcRIM0347: AcR insertional mutant of ZMO0347; type: cell-based, Zymomonas mobilis
Experimental: as §1, §2, §3, §4

ZM4 (p42-0347) = assay: Bioscreen growth of ZM4 (p42-0347) in RM with sodium and acetate ions; type: cell-based, Zymomonas mobilis
Experimental: as §1, §2, §4

[4] = test system: S. cerevisiae Lsm deletion mutants; type: cell-based; conditions: sodium acetate 40 g/L; Lsm1, 6, 7, 9, 12, 13, 16 deletions
Experimental: (§5) FIGS. 6A-6B. […] S. cerevisiae strains were grown in CM with 2% glucose for wild-type BY4741 and the deletion mutants, CM with 2% glucose minus uracil for GST over-expression strains. Five-μL culture was then transferred into 300-μL CM broth in the Bioscreen plate.
(§6) FIGS. 7A-7P. […] S. cerevisiae strains were grown in CM with 2% glucose (CM+glucose) for wild-type BY4741 and the deletion mutants, CM with 2% glucose and 2% galactose minus uracil (CM+glucose+2% galactose) for GST overexpression strains. A 5-μL culture was then transferred into 250-μL CM broth in the Bioscreen plate.
American Type Culture Collection (ATCC31821) and the Z. mobilis acetate tolerant strain AcR has been described previously (Joachimsthal et al. 2000). ZM4 and AcR were cultured in RM medium at 30° C. S. cerevisiae wild-type, deletion mutant and GST-fusion ORF over-expression strains were obtained through Open Biosystems (Huntsville, Ala.). S. cerevisiae strains were cultured in rich YPD media. […] Growth was monitored turbidometrically by measuring optical density at 600nm periodically with the Bioscreen C automated microbiology growth curve analysis system (Growth Curve USA, Piscataway, N.J.).

[5] = test system: S. cerevisiae Lsm protein over-expressing strains; assay: Bioscreen growth of S. cerevisiae Lsm protein over-expressing (GST) strains with inhibitors; type: cell-based; conditions: sodium acetate 40 g/L; Lsm1, 6, 9, 12, 13, 16
Experimental: as §5, §6, §4

ZM4 = conditions: ethanol production; cited from earlier work
AcR mutant = conditions: cited from earlier work
[6] = test system: recombinant Zymomonas mobilis 8b; conditions: pure glucose/xylose solutions; cited from earlier work
[7] = pH 5.0; cited from earlier work
Zymomonas mobilis = conditions: cited from earlier work
[8] = 16 g/L (195 mM) sodium acetate in RM
[9] = AcRIM0347, RM pH 5.0 supplemented with 195 mM of the chemical, anaerobic, NA = lack of growth
[10] = ZM4 (p42-0347), RM pH 5.0 supplemented with 195 mM of the chemical, anaerobic

Structure (SMILES): CC(=O)[O-].[Na+] [NaAc, sodium acetate]
- Relative inhibitory effect on wild-type Z. mobilis growth among sodium and acetate salts ([1]; 195 mM in RM): most significant inhibitory effect
- Growth of wild-type ZM4 in the presence of sodium acetate [1, 8]: unable to grow; also recorded: completely inhibited
- Final Cell Density [2]: 0.63 ± 0.02 OD600 nm
- Growth rate [2]: 0.29 ± 0.04 h⁻¹
- Final Cell Density (AcRIM0347 (p42-0347)): 0.45 ± 0.002 OD600 nm
- Growth rate (AcRIM0347 (p42-0347)): 0.16 ± 0.002 h⁻¹
- Reduction of growth rate and final cell density of AcRIM0347 compared to parental strain AcR ([3]; 195 mM in RM): about 60%
- Final Cell Density [3, 9]: 0.25 ± 0.001 OD600 nm
- Growth rate [3, 9]: 0.12 ± 0.004 h⁻¹
- Growth of ZM4 (p42-0347) in the presence of sodium acetate (ZM4 (p42-0347); [8]): able to grow
- Final Cell Density (ZM4 (p42-0347); [10]): 0.59 ± 0.002 OD600 nm
- Growth rate (ZM4 (p42-0347); [10]): 0.27 ± 0.004 h⁻¹
- Growth of Lsm deletion mutants in the presence of sodium acetate [4]: negative effects on the growth
- Growth of Lsm protein over-expressing strains in the presence of sodium acetate [5]: enhanced growth
- Sodium acetate concentration above which parent ZM4 was inhibited significantly (ZM4): above 12 g/L
- Sodium acetate concentration at which AcR was capable of efficient ethanol production (AcR mutant): 20 g/L

Structure (SMILES): CC(=O)O [acetic acid]
- Acetic acid concentration tolerated [6]: up to 16 g/L
- Fraction in the uncharged and undissociated form (HAc) [7]: 36%

Structure (SMILES): CCO [ethanol]
- Ethanol tolerance (Zymomonas mobilis): 12%
